Test results reported in ChEMBL document CHEMBL3244132, “Semisynthetic aminoglycoside antibacterials. 6. Synthesis of sisomicin, Antibiotic G-52, and novel 6'-substituted analogues of sisomicin from aminoglycoside 66-40C” (J Med Chem, 1978).
Calls of active or inactive are those of the source.

Key:
Assay type in all cases: functional
Trichomonas vaginalis = experiment: Antiprotozoal activity against Trichomonas vaginalis after 48 hrs
Histomonas meleagridis = experiment: Antiprotozoal activity against Histomonas meleagridis
Entamoeba histolytica = experiment: Antiprotozoal activity against Entamoeba histolytica JH
Escherichia coli [1] = experiment: Antimicrobial activity against Escherichia coli Baker 2 carrying APH(3')-I by tube dilution method
Streptococcus pyogenes [2] = experiment: Antimicrobial activity against Streptococcus pyogenes Alvarez by tube dilution method
Providencia = experiment: Antimicrobial activity against Providencia 164 carrying AAC(2')-I by tube dilution method
Streptococcus pyogenes [3] = experiment: Antimicrobial activity against Streptococcus pyogenes Group A Cruz by tube dilution method
Klebsiella pneumoniae [4] = experiment: Antimicrobial activity against Klebsiella pneumoniae Adler 17 carrying APH(3')-I by tube dilution method
Proteus mirabilis = experiment: Antimicrobial activity against Proteus mirabilis Harding by tube dilution method
Staphylococcus aureus [5] = experiment: Antimicrobial activity against Staphylococcus aureus 59N by tube dilution method
Bacillus subtilis = experiment: Antimicrobial activity against Bacillus subtilis ATCC 6633 by tube dilution method
Pseudomonas aeruginosa [6] = experiment: Antimicrobial activity against Pseudomonas aeruginosa Stone 130 carrying AAC(3) by tube dilution method
Streptococcus pyogenes [7] = experiment: Antimicrobial activity against Streptococcus pyogenes 27 by tube dilution method
Escherichia coli [8] = experiment: Antimicrobial activity against Escherichia coli HL97/W677 carrying AAC(6') by tube dilution method
Staphylococcus aureus [9] = experiment: Antimicrobial activity against Staphylococcus aureus 209 P by tube dilution method
Escherichia coli [10] = experiment: Antimicrobial activity against Escherichia coli LA290R55 carrying ANT(2'') by tube dilution method
Escherichia coli [11] = experiment: Antimicrobial activity against Escherichia coli JR88 carrying AAC(3) by tube dilution method
Streptococcus pyogenes [12] = experiment: Antimicrobial activity against Streptococcus pyogenes C by tube dilution method
Klebsiella pneumoniae [13] = experiment: Antimicrobial activity against Klebsiella pneumoniae Georgetown 3694 carrying APH(2'') by tube dilution method
Salmonella typhimurium = experiment: Antimicrobial activity against Salmonella typhimurium Gr. B. by tube dilution method; settings: Salmonella enterica subsp. enterica serovar Typhimurium
Pseudomonas aeruginosa [14] = experiment: Antimicrobial activity against Pseudomonas aeruginosa GN 315 carrying AAC(6') by tube dilution method
Providencia rettgeri [15] = experiment: Antimicrobial activity against Providencia rettgeri Anderson by tube dilution method
Serratia marcescens = experiment: Antimicrobial activity against Serratia marcescens Dalton by tube dilution method
Escherichia coli [16] = experiment: Antimicrobial activity against Escherichia coli ATCC 10536 by tube dilution method
Providencia rettgeri [17] = experiment: Antimicrobial activity against Providencia rettgeri Membel by tube dilution method
Staphylococcus aureus [18] = experiment: Antimicrobial activity against Staphylococcus aureus Ziegler by tube dilution method
Pseudomonas aeruginosa [19] = experiment: Antimicrobial activity against Pseudomonas aeruginosa St. M. 762 by tube dilution method
Staphylococcus aureus [20] = experiment: Antimicrobial activity against Staphylococcus aureus Wood by tube dilution method
Pseudomonas aeruginosa [21] = experiment: Antimicrobial activity against Pseudomonas aeruginosa St. M. 1395 by tube dilution method

Measured: Activity

CN[C@@H]1[C@@H](O)[C@@H](O[C@@H]2[C@@H](O)[C@H](O[C@H]3O[C@H](C(C)N)[C@@H](O)[C@H](O)[C@H]3N)[C@@H](N)C[C@H]2N)OC[C@]1(C)O (stereo not given in full)
inactive: Trichomonas vaginalis | Histomonas meleagridis | Entamoeba histolytica

CN[C@@H]1[C@@H](O)[C@@H](O[C@@H]2[C@@H](O)[C@H](O[C@H]3OC(/C=N\N)=CC[C@H]3N)[C@@H](N)C[C@H]2N)OC[C@]1(C)O
inactive: all assays above

CN[C@@H]1[C@@H](O)[C@@H](O[C@@H]2[C@@H](O)[C@H](O[C@H]3OC(CNN)=CC[C@H]3N)[C@@H](N)C[C@H]2N)OC[C@]1(C)O
inactive: all assays above

CN[C@@H]1[C@@H](O)[C@@H](O[C@@H]2[C@@H](O)[C@H](O[C@H]3OC(/C=N\OC)=CC[C@H]3N)[C@@H](N)C[C@H]2N)OC[C@]1(C)O
inactive: all assays above

CN[C@@H]1[C@@H](O)[C@@H](O[C@@H]2[C@@H](O)[C@H](O[C@H]3OC(/C=N\O)=CC[C@H]3N)[C@@H](N)C[C@H]2N)OC[C@]1(C)O
inactive: all assays above

CN[C@@H]1[C@@H](O)[C@@H](O[C@@H]2[C@@H](O)[C@H](O[C@H]3O[C@H](CN)[C@@H](O)[C@H](O)[C@H]3N)[C@@H](N)C[C@H]2N)OC[C@]1(C)O
inactive: Trichomonas vaginalis | Histomonas meleagridis | Entamoeba histolytica

CN[C@@H]1[C@@H](O)[C@@H](O[C@@H]2[C@@H](O)[C@H](O[C@H]3OC(/C=N/N4CCOCC4)=CC[C@H]3N)[C@@H](N)C[C@H]2N)OC[C@]1(C)O
inactive: all assays above

CN[C@@H]1[C@@H](O)[C@@H](O[C@@H]2[C@@H](O)[C@H](O[C@H]3OC(CNOC)=CC[C@H]3N)[C@@H](N)C[C@H]2N)OC[C@]1(C)O
inactive: all assays above

CN[C@@H]1[C@@H](O)[C@@H](O[C@@H]2[C@@H](O)[C@H](O[C@H]3O[C@@H](CN)CC[C@H]3N)[C@@H](N)C[C@H]2N)OC[C@]1(C)O
inactive: Trichomonas vaginalis | Histomonas meleagridis | Entamoeba histolytica

CN[C@@H]1[C@@H](O)[C@@H](O[C@@H]2[C@@H](O)[C@H](O[C@H]3OC(C(C)N)CC[C@H]3N)[C@@H](N)C[C@H]2N)OC[C@]1(C)O (single isomer, unassigned)
inactive: Trichomonas vaginalis | Histomonas meleagridis | Entamoeba histolytica

CN[C@@H]1[C@@H](O)[C@@H](O[C@@H]2[C@@H](O)[C@H](O[C@H]3OC(CNN4CCOCC4)=CC[C@H]3N)[C@@H](N)C[C@H]2N)OC[C@]1(C)O
inactive: all assays above
